# Biological target: T1, human MAdCAM-1 (huMAdCAM-1-Ig chimera); RPMI 8866 cells expressing α4β7 (Homo sapiens, UniProt P13612+P26010)
# T1 construct: RPMI 8866 cells, a B cell lymphoma expressing α4β7; endogenous in cells; host or cells: RPMI 8866 cells (endogenous α4β7)
# Test: huMAdCAM-1-Ig/RPMI 8866 Adhesion Assay
# Assay type: cell-based
# Conditions: Table 6, R1-Leu-Asp-Thr, read-out: hMAdCAM IC50
# Experimental: RPMI 8866 cells, a B cell lymphoma expressing α4β7 (a gift from D. Erle; Erle, D. J. et al., J. Immunol., 153:517-528 (1994); Shyjan et al., Journal of Immunology, 1996:2851 (1996) were fluorescently labeled (labeling protocol provided below) using BCECF (Molecular probes #B-1170). Cells were resuspended in an assay buffer consisting of Hanks Balanced Salt Solution (HBSS) supplemented with fetal calf serum (FCS) at a final concentration of 2%, HEPES, pH 7.3 at 25 mM. All reagents in this buffer were supplied from Gibco/BRL.
# All assays were performed in 96 well strip well plates from Costar (E.I.A./R.I.A. Strip plate-8 Cat. #2581). […] The plates were incubated at 37° C. for one hour (or at 4° C. overnight) and washed once in the automatic plate washer (50 mM Tris HCl, 0.14 M NaCl and 2.0 mM MnCl2 at pH 7.2) (Bio-Tek EL 404 microplate autowasher). Wells were then blocked with PBS (phosphate buffered saline) and 10% FCS (100 μl/well) for one hour at 37° C. followed by the same wash step as described.
# Cells were labeled with BCECF-AM (Molecular Probes, Cat. No. B-1170) at a concentration of 2 μl/ml to a cell suspension of 4×10^6 cells/ml in PBS. The cells were incubated in a 37° C. water bath for 30 minutes. Labeled cells were centrifuged at 700 RPM for 10 minutes, resuspended in assay buffer and the centrifugation step was repeated. The cells were resuspended at a final concentration of 2.5×10^6 cells/ml.
# For assays, compounds were diluted as follows in a 96 well polypropylene plate. First, a stock solution of each compound was prepared by dissolving compound in 100% DMSO at 100X final concentration to be tested. 10 μl of the stock was added to 90 μl water for the first test dilution. 50 μl of the first test dilution was added to 50 μl of 10% DMSO in water for the second test dilution. 50 μl of the second test dilution was added to 50 μl of 10% DMSO in water for the third test dilution. 50 μof the third test dilution was added to 50 μl of 10% DMSO in water for the fourth test dilution, and so on, until six test dilutions were prepared.
# A stock solution of SmM positive control peptide (L783-1A) was made in 100% DMSO, and subsequently diluted in water 1:10 (10 μl of 5 mM stock plus 90 μl of water) to yield a concentration of 0.5mM. This dilution was then further diluted 1:2 with 10% DMSO (50 μl of the compound and 50 μl of 10% DMSO) for a concentration of 250 μM. These 1:2 dilutions were continued serially until six dilutions were achieved. These dilutions represent 10X stocks as shown in the assay set up below:
# The assay was set up by adding materials to huMAdCAM-1-Ig-coated plates as follows:
# 1) 130 μl/well of assay buffer
# 2) 20 μl/well of diluted compounds or 10% DMSO (control) or diluted positive control peptide.
# 3) 50 μl of ECECF-AM-labeled RPMI 8866 cells
# The plates were wrapped in foil and incubated for 30 minutes at room temperature on a rotary shaker at 45 RPM.
# Plates were washed twice (50 mM Tris HCl, […] and 2.0 mM MnCl2 at pH 7.2) on the microplate autowasher plate washer set as follows:
# Plates were read in an IDEX fluoresecent plate reader set to excite at 485 nm and read at 535 nm.
# Data was collected in microsoft excel in a format for automatic IC 50 determinations.
# T1 sequence (P13612 34-1032, change not shown): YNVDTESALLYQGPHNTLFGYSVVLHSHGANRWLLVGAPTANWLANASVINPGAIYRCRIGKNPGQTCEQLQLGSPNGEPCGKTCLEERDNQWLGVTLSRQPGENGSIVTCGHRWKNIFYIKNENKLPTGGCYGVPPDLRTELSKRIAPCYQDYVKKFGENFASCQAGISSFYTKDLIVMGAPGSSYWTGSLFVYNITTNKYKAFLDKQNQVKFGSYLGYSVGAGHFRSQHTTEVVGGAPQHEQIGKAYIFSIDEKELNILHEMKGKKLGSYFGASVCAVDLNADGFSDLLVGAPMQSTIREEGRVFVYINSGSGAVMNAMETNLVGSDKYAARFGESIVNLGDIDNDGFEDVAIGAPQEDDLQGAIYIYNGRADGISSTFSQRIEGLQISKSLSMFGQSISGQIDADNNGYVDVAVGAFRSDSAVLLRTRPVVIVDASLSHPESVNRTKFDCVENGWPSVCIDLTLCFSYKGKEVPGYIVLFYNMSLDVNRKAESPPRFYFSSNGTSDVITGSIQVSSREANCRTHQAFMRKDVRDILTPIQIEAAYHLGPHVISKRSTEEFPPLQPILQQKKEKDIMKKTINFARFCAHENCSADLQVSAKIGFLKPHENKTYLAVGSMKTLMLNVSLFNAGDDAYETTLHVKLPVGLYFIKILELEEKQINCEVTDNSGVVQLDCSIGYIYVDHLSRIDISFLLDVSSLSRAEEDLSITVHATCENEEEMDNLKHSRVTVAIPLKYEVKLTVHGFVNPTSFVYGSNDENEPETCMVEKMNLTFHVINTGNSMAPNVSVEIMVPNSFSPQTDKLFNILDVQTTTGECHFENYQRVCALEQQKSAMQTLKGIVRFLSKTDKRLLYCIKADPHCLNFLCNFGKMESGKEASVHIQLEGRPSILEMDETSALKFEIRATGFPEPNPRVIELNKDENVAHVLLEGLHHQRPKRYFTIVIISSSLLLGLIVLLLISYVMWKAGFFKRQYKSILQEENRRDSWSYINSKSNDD
# T1 sequence (P26010 20-798, change not shown): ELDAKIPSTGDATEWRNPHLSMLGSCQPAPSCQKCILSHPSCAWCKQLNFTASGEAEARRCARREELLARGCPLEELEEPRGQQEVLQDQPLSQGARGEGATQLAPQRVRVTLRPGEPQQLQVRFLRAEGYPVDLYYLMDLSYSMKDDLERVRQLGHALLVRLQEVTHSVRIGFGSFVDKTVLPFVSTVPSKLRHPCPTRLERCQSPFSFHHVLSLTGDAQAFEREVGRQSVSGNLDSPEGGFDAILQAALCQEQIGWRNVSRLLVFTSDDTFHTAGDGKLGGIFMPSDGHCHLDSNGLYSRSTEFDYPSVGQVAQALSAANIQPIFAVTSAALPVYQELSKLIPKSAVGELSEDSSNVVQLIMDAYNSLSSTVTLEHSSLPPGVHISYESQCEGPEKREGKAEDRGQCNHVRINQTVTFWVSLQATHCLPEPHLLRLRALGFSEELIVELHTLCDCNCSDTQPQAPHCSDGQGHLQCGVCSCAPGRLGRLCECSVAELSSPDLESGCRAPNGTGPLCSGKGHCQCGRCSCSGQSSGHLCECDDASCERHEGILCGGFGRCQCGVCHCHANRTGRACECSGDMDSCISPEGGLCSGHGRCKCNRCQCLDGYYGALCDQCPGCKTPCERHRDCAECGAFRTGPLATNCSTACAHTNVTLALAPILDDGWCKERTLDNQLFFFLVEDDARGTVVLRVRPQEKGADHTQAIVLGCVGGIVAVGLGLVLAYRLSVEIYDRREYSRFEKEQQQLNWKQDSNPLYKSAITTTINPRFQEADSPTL
row,Compound,IC50
1,CC(C)C[C@H](NC(=O)c1cccc(C(F)(F)F)c1)C(=O)N[C@@H](CC(=O)O)C(=O)N[C@H](C(N)=O)[C@@H](C)O [Table 6 example 7],2800 nM
2,CC(C)C[C@H](NC(=O)c1coc2ccccc2c1=O)C(=O)N[C@@H](CC(=O)O)C(=O)N[C@H](C(N)=O)[C@@H](C)O [Table 6 example 2],730 nM
3,CC(C)C[C@H](NC(=O)c1ccc(C(C)(C)C)cc1)C(=O)N[C@@H](CC(=O)O)C(=O)N[C@H](C(N)=O)[C@@H](C)O [Table 6 example 4],1100 nM
4,Cc1nc(Cl)ccc1C(=O)N[C@@H](CC(C)C)C(=O)N[C@@H](CC(=O)O)C(=O)N[C@H](C(N)=O)[C@@H](C)O [Table 6 example 9],1100 nM
5,CCCCCCOc1ccc(C(=O)N[C@@H](CC(C)C)C(=O)N[C@@H](CC(=O)O)C(=O)N[C@H](C(N)=O)[C@@H](C)O)cc1 [Table 6 example 1],580 nM
6,CC(C)C[C@H](NC(=O)c1sccc1Br)C(=O)N[C@@H](CC(=O)O)C(=O)N[C@H](C(N)=O)[C@@H](C)O [Table 6 example 6],2600 nM
7,CC(C)C[C@H](NC(=O)c1cccc(F)c1F)C(=O)N[C@@H](CC(=O)O)C(=O)N[C@H](C(N)=O)[C@@H](C)O [Table 6 example 8],2000 nM
8,CC(C)C[C@H](NC(=O)c1cccc(Cl)c1)C(=O)N[C@@H](CC(=O)O)C(=O)N[C@H](C(N)=O)[C@@H](C)O [Table 6 example 3],1400 nM

# Same assay, conditions: Table 7, R1-Leu-Asp-Thr-R2, read-out: hMAdCAM IC50
row,Compound,IC50
1,Cc1cccc(CNC(=O)[C@@H](NC(=O)[C@H](CC(=O)O)NC(=O)[C@H](CC(C)C)NC(=O)c2cc3ccccc3cn2)[C@@H](C)O)c1 [Table 7 example 5],810 nM
2,CC(C)C[C@H](NC(=O)c1cc2ccccc2cn1)C(=O)N[C@@H](CC(=O)O)C(=O)N[C@H](C(=O)NC1CC1)[C@@H](C)O [Table 7 example 7],3800 nM
3,CC(C)C[C@H](NC(=O)c1cc2ccccc2cn1)C(=O)N[C@@H](CC(=O)O)C(=O)N[C@H](C(=O)N1CCC(C)OC1C)[C@@H](C)O (stereo partly drawn) [Table 7 example 3],970 nM
4,CC(C)C[C@H](NC(=O)c1cc2ccccc2cn1)C(=O)N[C@@H](CC(=O)O)C(=O)N[C@H](C(=O)NCCO)[C@@H](C)O [Table 7 example 9],1500 nM
5,CC(C)C[C@H](NC(=O)c1cc2ccccc2o1)C(=O)N[C@@H](CC(=O)O)C(=O)N[C@H](C(=O)NC1CCc2ccccc21)[C@@H](C)O (stereo partly drawn) [Table 7 example 10],1500 nM
6,CC(C)C[C@H](NC(=O)c1cc2ccccc2cn1)C(=O)N[C@@H](CC(=O)O)C(=O)N[C@H](C(=O)NCCC1=CCCCC1)[C@@H](C)O [Table 7 example 4],640 nM
7,CC(C)C[C@H](NC(=O)c1cc2ccccc2cn1)C(=O)N[C@@H](CC(=O)O)C(=O)N[C@H](C(=O)NC1CCCCCCC1)[C@@H](C)O [Table 7 example 8],1300 nM
8,CC(C)C[C@H](NC(=O)c1cc2ccccc2cn1)C(=O)N[C@@H](CC(=O)O)C(=O)N[C@H](C(=O)N[C@@H](C)c1cccc2ccccc12)[C@@H](C)O [Table 7 example 6],970 nM
9,CC(C)C[C@H](NC(=O)c1cc2ccccc2cn1)C(=O)N[C@@H](CC(=O)O)C(=O)N[C@H](C(=O)N1CCc2ccccc2C1)[C@@H](C)O [Table 7 example 1],780 nM

# Same assay, conditions: read-out: hMAdCAM IC50, Table 7, R1-Leu-Asp-Thr-R2
row,Compound,IC50
1,CC(C)C[C@H](NC(=O)c1cc2ccccc2cn1)C(=O)N[C@@H](CC(=O)O)C(=O)N[C@H](C(=O)N1CCC(=O)CC1)[C@@H](C)O [Table 7 example 2],940 nM
